Tests used:
Assay in all cases: Alpha-dioxygenase activity assay (oxygen consumption, TON)
Format in all cases: biochemical
Conditions in all cases: fatty acid 100 µM, enzyme 6 ppm, 50 mM HEPES pH 9.0, 37°C; initial rate of oxygen consumption / enzyme concentration
[1] = tested on: Mycolicibacterium fortuitum αDOX (SEQ ID NO: 7), fatty acid alpha-dioxygenase, K0VMX8, N-terminal His-tag variant SEQ ID NO: 261
Description: (§1) Mycolicibacterium fortuitum αDOX (SEQ ID NO: 7) is a fatty acid alpha-dioxygenase that converts fatty acids into the corresponding 2-hydroperoxy fatty acids and is included as an example of the present invention. A codon optimized gene (SEQ ID NO: 260) encoding for an alpha-dioxygenase variant (SEQ ID NO: 261), including an N-terminal amino acid sequence containing a His-tag was designed and synthesized by Genscript. After gene synthesis, the protein was expressed and purified. In brief, the complete synthetic gene sequence was subcloned into a pET30a vector using the NdeI/HindIII cloning sites. For heterologous expression, Escherichia coli BL21 (DE3) cells were transformed with the recombinant plasmid and a single colony was inoculated into LB medium containing kanamycin (50 mg/L). A pre-starter culture was then inoculated into flasks containing Magic Media (Thermo Fisher, Catalog # K6803) supplemented with kanamycin (50 mg/L) and incubated at 16 °C for 72 h. At an OD600nm = 0.5 - 1.0, 5-aminolevulinic acid (final concentration 0.5 mM) was added. Cells were harvested by centrifugation at 5000 rpm and 4°C and the pellet was lysed using a bacterial cell lysis buffer (B-PER - Themo Fisher, Waltham, MA). After centrifugation, the supernatant was collected, and the protein was purified by one-step purification using HisPur™ Ni-NTA Spin Columns (Thermo Scientific, Catalog # 88226) and standard protocols known in the art. The protein was concentrated using a 10 kDa MW cutoff Amicon Ultra centrifugal filter unit (Millipore Sigma, Catalog# UFC901024), followed by desalting using a disposable PD-10 […], 500 mM NaCl, and 10% Glycerol at pH 8.0. The purified enzyme was stored at -80 °C until use.
(§2) Reactions with alpha-dioxygenases were performed as follows. […] The reaction was incubated for up to 10 minutes at 37°C with 200 rpm agitation and the conversion was monitored using an oxygen sensor. The TON (in s-1) were calculated as the ratio between the initial rate of oxygen consumption (in µM/s) and the concentration of enzyme (in µM). […]

[2] = tested on: Gossypium raimondii αDOX (SEQ ID NO: 5), fatty acid alpha-dioxygenase, A0A0D2W0W0, N-terminal His-tag variant SEQ ID NO: 257
Description: as §1, with “Gossypium raimondii” for “Mycolicibacterium fortuitum”, “5)” for “7)”, “256)” for “260)”, “257),” for “261),”, “PD-10 desalting column (GE Healthcare Life Sciences, Catalog# 17085101) and a buffer containing” for “PD-10”, “The purified enzyme was stored at -80 °C until use.” left out
as §2

[3] = tested on: Solanum lycopersicum αDOX (SEQ ID NO: 8), fatty acid alpha-dioxygenase, Q5WM33, N-terminal His-tag variant SEQ ID NO: 263 (comparative)
Description: Solanum lycopersicum αDOX (SEQ ID NO: 8) is a fatty acid alpha-dioxygenase that converts fatty acids into the corresponding 2-hydroperoxy fatty acids and is included as a comparative example of the present invention. A codon optimized gene (SEQ ID NO: 262) encoding for an alpha-dioxygenase variant (SEQ ID NO: 263), including an N-terminal amino acid sequence containing a His-tag was designed and synthesized by Genscript. After gene synthesis, the protein was expressed and purified. In brief, the complete synthetic gene sequence was subcloned into a pET30a vector using the NdeI/HindIII cloning sites. For heterologous expression, Escherichia coli BL21 (DE3) cells were transformed with the recombinant plasmid and a single colony was inoculated into LB medium containing kanamycin (50 mg/L). A pre-starter culture was then inoculated into flasks containing Magic Media (Thermo Fisher, Catalog # K6803) supplemented with kanamycin (50 mg/L) and incubated at 16 °C for 72 h. At an OD600nm = 0.5 - 1.0, 5-aminolevulinic acid (final concentration 0.5 mM) was added. Cells were harvested by centrifugation at 5000 rpm and 4°C and the pellet was lysed using a bacterial cell lysis buffer (B-PER - Themo Fisher, Waltham, MA). After centrifugation, the supernatant was collected, and the protein was purified by one-step purification using HisPur™ Ni-NTA Spin Columns (Thermo Scientific, Catalog # 88226) and standard protocols known in the art. The protein was concentrated using a 10 kDa MW cutoff Amicon Ultra centrifugal filter unit (Millipore Sigma, Catalog# UFC901024), followed by desalting using a disposable PD-10 desalting column (GE Healthcare Life Sciences, Catalog# 17085101) and a buffer containing 50 mM Tris-HCl, 500 mM NaCl, and 10% Glycerol at pH 8.0. […]
as §2

## CCCCCCCC/C=C\CCCCCCCC(=O)O [Oleic Acid]
[1]
  Oleic Acid, TON: 0.00 s⁻¹
[2]
  Oleic Acid, TON: 1.68 s⁻¹
[3]
  Oleic Acid, TON: 0.00 s⁻¹

## CCCCCCCCCCCCCCCC(=O)O [Palmitic Acid]
[1]
  Palmitic Acid, TON: 0.00 s⁻¹
[2]
  Palmitic Acid, TON: 2.56 s⁻¹
[3]
  Palmitic Acid, TON: 0.00 s⁻¹

## CCCCCCCCCCCCCCCCCC(=O)O [Stearic Acid]
[1]
  Stearic Acid, TON: 1.66 s⁻¹
[2]
  Stearic Acid, TON: 1.68 s⁻¹
[3]
  Stearic Acid, TON: 0.12 s⁻¹

Source: patent EP3981864A1, “DETERGENT COMPOSITION” (priority 2020, dated 2022)
